Laboratory results as given in patent US20230134859A1, “METHOD FOR SCREENING FOR, METHOD FOR PRODUCING, AND METHOD FOR DESIGNING DRUG ACTIVE INGREDIENTS” (SKY PHARMA CO., LTD., priority 2020, published 2023).

Experiments:
Purkinje cells = test: Test Example 6: increase in Purkinje cells of adult mouse after injection into E11.5 fetal ventricle; type: in vivo; conditions: test compounds = Compounds 1 to 7; 100 μM injected into E11.5 fetal ventricle, counted in adult mice; vs control; N=10
Method: A solution prepared by dissolving 100 μM of the test compound in physiological saline was injected into E11.5 mouse fetal ventricle. Brains of adult mouse individuals were fixed, and slice sections of cerebellar Purkinje cell layers were immunostained with an anti-d-Calbindin antibody, which is a marker of cell bodies and neurites of Purkinje cells. After staining, the number of Purkinje cells was counted, and the average value thereof was calculated.
As a control experiment (control), a similar experiment was performed using physiological saline containing no test compound.
The number of samples is 10 for each of Compounds 1 to 7 and control (N=10).

[1] = test system: T-cell type acute lymphocytic leukemia model; test: Test Example 10: verification of anticancer effect in T-cell type acute lymphocytic leukemia model; type: in vivo, zebrafish
Method: T-cell type acute lymphocytic leukemia model specifically expressing GFP in vascular endothelial cells
A liquid agent prepared by adding a compound to E3 Ringer to adjust to 100 μM was microscopically injected into the body ventral main vessel of an embryo of a T cell-type acute lymphatic leukemia model individual 24 hours after fertilization. E3 Ringer was similarly microscopically injected as a control. At the time of microinjection, embryos were held on the body side up in a 3% methylcellulose/E3 Ringer/0.02% tricaine solution on a glass slide, and then a glass capillary was inserted into an abdominal main vessel running in the head-to-tail direction at the boundary between the body wall and egg yolk. Then, a nitrogen gas pressure (15 picosiemens) was applied for 30 to 45 milliseconds, and the mixture was injected into the blood vessel. At this time, 0.025% (final concentration) phenol red was mixed as a tracer of the injection solution. The amount to be injected was adjusted by applying gas pressure in a pulsed manner until a large blood vessel of the whole body became uniform and thin red due to blood flow. […]
In addition, survival rates of drug-injected individuals and control individuals were counted. […]

Structure (SMILES): CNS(=O)(=O)c1ccccc1Nc1nc(Nc2ccc(N3CCN(C)CC3)cc2OC)ncc1Cl [Compound 7, 2-[[5-Chloro-2-[2-methoxy-4-(4-methylpiperazin-1-yl)anilino]pyrimidin-4-yl]amino]-N-methylbenzenesulfonamide]
- number of Purkinje cells in the cerebellar Purkinje cell layers (Purkinje cells): significantly higher than that of the control
- thickening and tumorigenesis of vascular endothelium ([1]; 100 μM injected into ventral main vessel at 24, 36 and 48 h after fertilization, observed at 56 h, vs control): thickening and tumorigenesis of the endothelium were observed
- survival rate on Day 28 ([1]; leukemia model individuals injected with 100 μM, three tests, control 22.4%±4.56): 55.9%±6.07
